# Experimental data taken from publication PMC5610471, “Use of the KlADH3 promoter for the quantitative production of the murine PDE5A isoforms in the yeast Kluyveromyces lactis” (Microbial Cell Factories, 2017).
# Tests used:
# [1] = target: T1, PDE5A1 (Mus musculus, UniProt Q8CG03); experiment: biochemical
# T1 construct: gene Pde5a
# [2] = tested on: [H][C@@]12COP(=O)(O)O[C@@]1([H])[C@@H](O)[C@H](n1cnc3c(=O)[nH]c(N)nc31)O2; experiment: purified protein; conditions: Mg2+ ([…] MgCl2 in the assay buffer)
Compound,IC50 [1] [nM],Km [2] [µM]
CCCc1nn(C)c2c(=O)[nH]c(-c3cc(S(=O)(=O)N4CCN(C)CC4)ccc3OCC)nc12 [Sildenafil],4.7 ± 1.1,
PDE5A1 (Mus musculus),,1.08 ± 0.08
